SMILES strings stand for the structures. pIC50: −log10 of the molar value.

The target of one assay is T1, Bone morphogenetic protein 1 (Homo sapiens, UniProt P13497).
T1 sequence (P13497 whole entry): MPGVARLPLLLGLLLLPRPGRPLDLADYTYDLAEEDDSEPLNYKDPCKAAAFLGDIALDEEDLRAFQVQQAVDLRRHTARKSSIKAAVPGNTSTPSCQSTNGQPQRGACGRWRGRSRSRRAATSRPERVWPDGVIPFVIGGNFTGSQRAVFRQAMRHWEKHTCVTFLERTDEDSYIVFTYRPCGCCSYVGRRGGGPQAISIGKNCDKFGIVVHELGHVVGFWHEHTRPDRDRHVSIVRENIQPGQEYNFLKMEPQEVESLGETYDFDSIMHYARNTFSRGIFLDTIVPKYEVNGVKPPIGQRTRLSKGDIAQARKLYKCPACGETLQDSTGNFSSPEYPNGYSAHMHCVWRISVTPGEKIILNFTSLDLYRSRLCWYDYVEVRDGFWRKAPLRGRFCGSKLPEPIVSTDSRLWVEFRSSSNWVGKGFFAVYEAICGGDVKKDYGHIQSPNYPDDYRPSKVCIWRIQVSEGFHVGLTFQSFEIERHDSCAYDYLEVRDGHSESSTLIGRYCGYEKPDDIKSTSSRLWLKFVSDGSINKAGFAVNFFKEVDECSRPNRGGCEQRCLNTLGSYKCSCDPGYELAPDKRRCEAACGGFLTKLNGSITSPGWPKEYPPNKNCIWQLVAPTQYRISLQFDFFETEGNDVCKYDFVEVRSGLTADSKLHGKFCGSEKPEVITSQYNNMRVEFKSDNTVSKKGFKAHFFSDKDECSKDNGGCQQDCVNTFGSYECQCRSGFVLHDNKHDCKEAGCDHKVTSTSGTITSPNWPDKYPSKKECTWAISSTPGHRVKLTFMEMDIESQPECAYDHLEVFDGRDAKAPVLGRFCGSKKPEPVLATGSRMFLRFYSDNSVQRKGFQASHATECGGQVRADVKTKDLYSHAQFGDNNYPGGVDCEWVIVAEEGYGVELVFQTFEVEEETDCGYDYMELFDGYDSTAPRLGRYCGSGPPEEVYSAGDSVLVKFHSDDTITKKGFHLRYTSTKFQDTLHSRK
The assay is described as follows: Inhibitory activity against procollagen C-proteinase (PCP).
Regarding `COc1ccc(S(=O)(=O)N(Cc2cccc(F)c2F)[C@H](Cc2cccs2)C(=O)NO)cc1`, the negative-log IC50 (pIC50) (as a rule, −log10 of the IC50, conventionally taken in molar units) was 7.00.

Regarding `COc1ccc(S(=O)(=O)N(Cc2ccc(OC)c(C)c2)[C@H](Cc2cccs2)C(=O)NO)cc1`, the pIC50 was 6.31.

`COc1ccc(S(=O)(=O)N(Cc2ccc(C(C)C)cc2)[C@H](C)C(=O)O)cc1` had a pIC50 of 6.46.

Turning to `COc1ccc(CSC[C@H](C(=O)O)N(Cc2ccc3c(c2)OCO3)S(=O)(=O)c2ccc(OC)cc2)cc1`, the pIC50 was 6.60.

In turn, `COc1ccc(S(=O)(=O)N(Cc2cccc(Br)c2)[C@H](Cc2cccs2)C(=O)NO)cc1` gave a pIC50 of 6.59. The pIC50 values of the last two molecules are within 0.2 log units of each other.

Turning to `C=Cc1ccc(CN([C@H](Cc2cccs2)C(=O)NO)S(=O)(=O)c2ccc(OC)cc2)cc1`, the pIC50 was 6.72.

On to `CCCCN(C)C(=N)NCCCC[C@H](C(=O)O)N(Cc1ccc2c(c1)OCO2)S(=O)(=O)c1ccc(OC)cc1`, for which the pIC50 is 6.70.

Take `COc1ccc(S(=O)(=O)N(Cc2cccc(C)c2[N+](=O)[O-])[C@H](C)C(=O)O)cc1`: the pIC50 was 6.42.

For `COC(=O)c1ccc(CN([C@H](Cc2cccs2)C(=O)NO)S(=O)(=O)c2ccc(OC)cc2)cc1`, the pIC50 is 6.96.

`COc1ccc(S(=O)(=O)N(Cc2sc3scc(C)c3c2C)[C@H](C)C(=O)O)cc1` gave a pIC50 of 7.30.

On to `COc1ccc(S(=O)(=O)N(Cc2ccc(I)cc2)[C@H](Cc2cccs2)C(=O)NO)cc1`, for which the pIC50 is 6.44.

With `COc1ccc(S(=O)(=O)N(Cc2ccc(Br)cc2F)[C@H](C)C(=O)O)cc1`, the pIC50 was 6.31.

Regarding `COc1ccc(S(=O)(=O)N(Cc2ccc(OC)c(C)c2C)[C@H](C)C(=O)O)cc1`, the pIC50 is 6.70.

Consider `COc1ccc(S(=O)(=O)N(Cc2cccc(I)c2)[C@H](C)C(=O)O)cc1`, for which the pIC50 was 6.55.

As for `COc1ccc(S(=O)(=O)N(Cc2ccc(Cl)cc2Cl)[C@H](Cc2cccs2)C(=O)NO)cc1`, the pIC50 is 6.07.

For the molecule `COc1ccc(S(=O)(=O)N(Cc2ccc3c(c2)OCO3)[C@H](COCc2ccccc2)C(=O)O)cc1`, the pIC50 is 6.42.

For `COc1ccc(S(=O)(=O)N(Cc2cc(F)c(F)cc2F)[C@H](Cc2cccs2)C(=O)NO)cc1`, the pIC50 was 6.74. Compared with the last molecule, the pIC50 is 0.32 log units higher.

`COc1ccc(S(=O)(=O)N(Cc2ccc3c(c2)OCO3)[C@@H](C(=O)O)C2CCN(C(=O)OC(C)(C)C)CC2)cc1` had a pIC50 of 7.59.

As to `COc1ccc(S(=O)(=O)N(Cc2ccc3c(c2)OCO3)[C@H](Cc2ccncc2)C(=O)O)cc1`, the pIC50 was 6.23.

As for `COc1ccc(S(=O)(=O)N(Cc2cccc(C)c2F)[C@H](Cc2cccs2)C(=O)NO)cc1`, the pIC50 was 6.82. Against the preceding molecule, the pIC50 is 0.59 log units higher.

Regarding `COc1ccc(S(=O)(=O)N(Cc2cccc(Br)c2)[C@H](Cc2cccs2)C(=O)O)cc1`, the pIC50 is 6.64. The pIC50 values of the last two molecules are within 0.2 log units of each other.

As to `COc1ccc(S(=O)(=O)N(CCn2cccc2)[C@H](Cc2cccs2)C(=O)NO)cc1`, the pIC50 is 6.21.

In the case of `COc1ccc(S(=O)(=O)N(Cc2ccc3c(c2)OCO3)[C@H](CCC(=O)OC2CCCCC2)C(=O)O)cc1`, the negative logarithm of the IC50 (pIC50) is 6.33. This pIC50 and that of the molecule before are within 0.2 log units of each other.

Take `COc1ccc(S(=O)(=O)N(Cc2cc(C(F)(F)F)cc(C(F)(F)F)c2)[C@H](Cc2cccs2)C(=O)NO)cc1`: the pIC50 was 6.23.

Molecule `COc1ccc(S(=O)(=O)N(Cc2ccc(-c3cnns3)cc2)[C@H](Cc2cccs2)C(=O)NO)cc1` had a pIC50 of 6.36.

The target in a further assay is T1, Bone morphogenetic protein 1. The assay is described as follows: Inhibitory activity against Procollagen C-Proteinase (PCP).
Consider `COc1ccc(S(=O)(=O)N(Cc2sc3scc(C)c3c2C)[C@H](C)C(=O)NO)cc1`, for which the pIC50 was 7.22.

As to `COc1ccc(S(=O)(=O)N(Cc2ccc3c(c2)OCO3)[C@H](Cc2ccc([N+](=O)[O-])cc2)C(=O)NO)cc1`, the pIC50 was 7.49.

`COc1ccc(S(=O)(=O)N(Cc2ccc(Br)cc2)[C@H](Cc2cccs2)C(=O)NO)cc1`: the pIC50 is 7.15.

In the case of `COc1ccc(S(=O)(=O)N(Cc2ccc(C)c([N+](=O)[O-])c2)[C@H](Cc2cccs2)C(=O)NO)cc1`, the pIC50 was 7.22.

As for `COc1ccc(S(=O)(=O)N(Cc2ccc3cc(C)ccc3c2)[C@H](C)C(=O)NO)cc1`, the pIC50 is 6.66.

As to `COc1ccc(S(=O)(=O)N(Cc2ccc(Cl)c([N+](=O)[O-])c2)[C@H](C)C(=O)NO)cc1`, the pIC50 is 7.52.

Take `COc1ccc(S(=O)(=O)N(Cc2cccc3ccccc23)[C@H](C)C(=O)NO)cc1`: the pIC50 was 7.05.

For the molecule `COc1ccc(S(=O)(=O)N(Cc2ccc(C(C)C)cc2)[C@H](C)C(=O)NO)cc1`, the pIC50 was 6.64.

On to `COc1ccc(S(=O)(=O)N(Cc2ccc(OC)c(C)c2C)[C@H](C)C(=O)NO)cc1`, for which the pIC50 was 6.66. This pIC50 and that of the molecule before are within 0.2 log units of each other.

Molecule `COc1ccc(S(=O)(=O)N(Cc2cc(C)on2)[C@H](C)C(=O)NO)cc1` gave a pIC50 of 6.64. The pIC50 values of the last two molecules are within 0.2 log units of each other.

Take `COc1ccc(S(=O)(=O)N(Cc2cccc(C)c2[N+](=O)[O-])[C@H](C)C(=O)NO)cc1`: the pIC50 is 6.92.

Regarding `COc1ccc(S(=O)(=O)N(Cc2ccc3c(c2)OCO3)[C@H](Cc2cn(C)cn2)C(=O)NO)cc1`, the pIC50 is 7.30. This pIC50 lies 0.38 log units higher than the previous one.

In the case of `COc1ccc(S(=O)(=O)N(Cc2ccc3c(c2)OCO3)[C@H](Cc2cccs2)C(=O)NO)cc1` (stereo in doubt; 41), the pIC50 was 9.70. This pIC50 lies 2.40 log units higher than the previous one.

In turn, `COc1ccc(S(=O)(=O)N(Cc2ccc3c(c2)OCO3)[C@@H](C(=O)NO)C(C)C)cc1` had a pIC50 of 7.28. This pIC50 is 2.42 log units lower than that of the molecule before.

Take `COc1ccc(S(=O)(=O)N(Cc2ccc3c(c2)OCO3)[C@@H](C(=O)NO)C(=O)C(N)CNC(=O)OCc2ccccc2)cc1` (stereo not given in full): the pIC50 was 7.85.

On to `COc1ccc(S(=O)(=O)N(Cc2cnc(Cl)s2)[C@H](C)C(=O)NO)cc1`, for which the pIC50 was 6.74.

In turn, `COc1ccc(S(=O)(=O)N(Cc2ccc(Br)cc2)[C@H](C)C(=O)NO)cc1` gave a pIC50 of 7.43.

Molecule `C=CCOc1ccc2ccc(CN([C@H](C)C(=O)NO)S(=O)(=O)c3ccc(OC)cc3)cc2c1` had a pIC50 of 6.89.

With `COc1ccc(S(=O)(=O)N(Cc2cc(F)cc(F)c2)[C@H](C)C(=O)NO)cc1`, the pIC50 is 6.85.

Molecule `COc1ccc(S(=O)(=O)N(Cc2sccc2Oc2ccccc2)[C@H](C)C(=O)NO)cc1` gave a pIC50 of 7.40. Compared with the last molecule, the pIC50 is 0.55 log units higher.

Consider `COc1ccc(S(=O)(=O)N(Cc2ccc3c(c2)OCO3)[C@H](COC(C)(C)C)C(=O)NO)cc1`, for which the pIC50 was 7.64.

The molecule `COc1ccc(S(=O)(=O)N(Cc2ccc3c(c2)OCO3)[C@@H](C(=O)NO)C(=O)C(N)CNC(=O)OCC2c3ccccc3-c3ccccc32)cc1` (stereo not given in full) showed a pIC50 of 10.62. Against the preceding molecule, the pIC50 is 2.98 log units higher.

Regarding `COc1ccc(S(=O)(=O)N(Cc2ccc3c(c2)OCO3)[C@@H](C(=O)NO)C(=O)C(N)CNC(=O)OCc2ccccc2Cl)cc1` (stereo not given in full), the pIC50 is 8.34. Against the preceding molecule, the pIC50 is 2.28 log units lower.

For the molecule `COc1ccc(S(=O)(=O)N(Cc2cc(C(F)(F)F)cc(C(F)(F)F)c2)[C@H](C)C(=O)NO)cc1`, the pIC50 is 6.66.

Turning to `C=CCOC(=O)NCC(N)C(=O)[C@H](C(=O)NO)N(Cc1ccc2c(c1)OCO2)S(=O)(=O)c1ccc(OC)cc1` (stereo not given in full), the pIC50 is 7.64. Compared with the last molecule, the pIC50 is 0.98 log units higher.

As for `COc1ccc(S(=O)(=O)N(Cc2cccc(Br)c2)[C@H](C)C(=O)NO)cc1`, the pIC50 is 7.03. This pIC50 lies 0.61 log units lower than the previous one.

`COc1ccc(S(=O)(=O)N(Cc2ccc3c(c2)OCO3)[C@H](CCCNC(=O)OC(C)(C)C)C(=O)NO)cc1` had a pIC50 of 7.28.

`COc1ccc(S(=O)(=O)N(Cc2ccccc2C(F)(F)F)[C@H](C)C(=O)NO)cc1` showed a pIC50 of 8.22.

With `COc1ccc(S(=O)(=O)N(Cc2ccc3c(c2)OCO3)[C@@H](C(=O)NO)C(=O)C(N)CNC(=O)OCc2ccccc2Br)cc1` (stereo not given in full), the pIC50 was 7.74.

With `COc1ccc(S(=O)(=O)N(Cc2ccc3c(c2)OCO3)[C@H](Cc2cncn2C(c2ccccc2)(c2ccccc2)c2ccccc2)C(=O)NO)cc1`, the pIC50 is 7.44.

The molecule `COc1ccc(S(=O)(=O)N(Cc2ccc3c(c2)OCO3)[C@H](CCCCNC(=O)OCc2ccccc2)C(=O)NO)cc1` had a pIC50 of 7.80.

Consider `COc1ccc(S(=O)(=O)N(Cc2ccc(Cl)c(Cl)c2)[C@H](C)C(=O)NO)cc1`, for which the pIC50 is 6.92.

As to `COc1ccc(S(=O)(=O)N(Cc2ccc3c(c2)OCO3)[C@H](Cc2cncn2Cc2ccccc2)C(=O)NO)cc1`, the pIC50 was 7.57. Against the preceding molecule, the pIC50 is 0.65 log units higher.

As to `COc1ccc(S(=O)(=O)N(Cc2ccc3c(c2)OCO3)[C@H](CSc2ccc(C)cc2)C(=O)NO)cc1`, the pIC50 was 7.35.

As to `COc1ccc(C[C@H](C(=O)NO)N(Cc2ccc3c(c2)OCO3)S(=O)(=O)c2ccc(OC)cc2)cc1`, the pIC50 was 7.40.

`COc1ccc(S(=O)(=O)N(CCn2cccc2)[C@H](C)C(=O)NO)cc1` had a pIC50 of 6.77.

On to `COc1ccc(S(=O)(=O)N(Cc2ccc3c(c2)OCO3)[C@H](Cc2cccs2)C(=O)NO)cc1` (stereo in doubt; 2), for which the pIC50 is 9.70.

Turning to `COc1ccc(S(=O)(=O)N(Cc2ccc(F)c(F)c2)[C@H](C)C(=O)NO)cc1`, the pIC50 is 7.12.

With `COc1ccc(S(=O)(=O)N(Cc2ccc(SC)cc2)[C@H](C)C(=O)NO)cc1`, the pIC50 is 7.10.

`COc1ccc(CSC[C@H](C(=O)NO)N(Cc2ccc3c(c2)OCO3)S(=O)(=O)c2ccc(OC)cc2)cc1` had a negative logarithm of the IC50 (pIC50) of 7.49.

These data come from ChEMBL document CHEMBL1135293, “Amino acid derived sulfonamide hydroxamates as inhibitors of procollagen C-proteinase. Part 2: Solid-phase optimization of side chains” (Bioorg Med Chem Lett, 2002).
